# ChEMBL document CHEMBL3885881, “DrugMatrix”
# Species on record: Rattus norvegicus
# Experiment: DrugMatrix - Regimen: Daily Repeat
# Type: toxicity, organism-based, Sprague-Dawley
# Parameters: regimen Daily Repeat, gender Male, age 6-8 weeks
# Details: in vivo, iv, vehicle 100 % SALINE; for ABSOLUTE BASOPHIL / ABSOLUTE EOSINOPHIL / ABSOLUTE LYMPHOCYTE / ABSOLUTE MONOCYTE / ABSOLUTE SEGMENTED NEUTROPHIL / BASOPHIL / EOSINOPHIL / ERYTHROCYTE COUNT / HEMATOCRIT / HEMOGLOBIN / LEUKOCYTE COUNT / LYMPHOCYTE / MEAN CORPUSCULAR HEMOGLOBIN / MEAN CORPUSCULAR HEMOGLOBIN CONCENTRATION / MEAN CORPUSCULAR VOLUME / MONOCYTE / NEUTROPHIL / NUCLEATED RED BLOOD CELLS / PLATELET COUNT: tissue Blood; for ALANINE AMINOTRANSFERASE / ALBUMIN / ALKALINE PHOSPHATASE / ASPARTATE AMINOTRANSFERASE / BLOOD UREA NITROGEN / CARBON DIOXIDE / CHLORIDE / CHOLESTEROL / CREATINE PHOSPHOKINASE / CREATININE / GLUCOSE / LACTATE DEHYDROGENASE / LIPASE / PHOSPHORUS / POTASSIUM / SODIUM / TOTAL BILIRUBIN / TOTAL PROTEIN / URIC ACID: tissue Plasma
# [1] = 0 mg/kg, 72 h, dose level Control, time 3 day
# [2] = 0 mg/kg, 120 h, dose level Control, time 5 day
# [3] = 0.5 mg/kg, 72 h, dose level Low, time 3 day
compound,measurement,setting,value
CO[C@@]12[C@H](COC(N)=O)C3=C(C(=O)C(C)=C(N)C3=O)N1C[C@@H]1N[C@@H]12 [MITOMYCIN],ABSOLUTE BASOPHIL,[1],0 CELLS/uL
same,ABSOLUTE EOSINOPHIL,[1],0 CELLS/uL
same,ABSOLUTE LYMPHOCYTE,[1],7026.17 CELLS/uL
same,ABSOLUTE MONOCYTE,[1],44.33 CELLS/uL
same,ABSOLUTE SEGMENTED NEUTROPHIL,[1],379.5 CELLS/uL
same,BASOPHIL,[1],0%
same,EOSINOPHIL,[1],0%
same,ERYTHROCYTE COUNT,[1],5.49 x10E6/uL
same,HEMATOCRIT,[1],33.67%
same,HEMOGLOBIN,[1],13.17 G/DL
same,LEUKOCYTE COUNT,[1],7.45 x10E3/uL
same,LYMPHOCYTE,[1],94%
same,MEAN CORPUSCULAR HEMOGLOBIN,[1],24.03 pg
same,MEAN CORPUSCULAR HEMOGLOBIN CONCENTRATION,[1],39.15 G/DL
same,MEAN CORPUSCULAR VOLUME,[1],61.4 fL
same,MONOCYTE,[1],0.67%
same,NEUTROPHIL,[1],5.33%
same,NUCLEATED RED BLOOD CELLS,[1],0.17 /100WBC
same,PLATELET COUNT,[1],1062.5 x10E3/uL
same,ALANINE AMINOTRANSFERASE,[1],53.17 u/L
same,ALBUMIN,[1],4.33 G/DL
same,ALKALINE PHOSPHATASE,[1],339.83 u/L
same,ASPARTATE AMINOTRANSFERASE,[1],83.33 u/L
same,BLOOD UREA NITROGEN,[1],16 mg/dL
same,CARBON DIOXIDE,[1],32.5 mmol/L
same,CHLORIDE,[1],98 MEQ/L
same,CHOLESTEROL,[1],74.67 mg/dL
same,CREATINE PHOSPHOKINASE,[1],284 u/L
same,CREATININE,[1],0.2 mg/dL
same,GLUCOSE,[1],128.67 mg/dL
same,LACTATE DEHYDROGENASE,[1],110.33 u/L
same,LIPASE,[1],9 u/L
same,PHOSPHORUS,[1],11.73 mg/dL
same,POTASSIUM,[1],6.34 MEQ/L
same,SODIUM,[1],143.12 MEQ/L
same,TOTAL BILIRUBIN,[1],0.18 mg/dL
same,TOTAL PROTEIN,[1],6.2 G/DL
same,URIC ACID,[1],1.28 mg/dL
same,ABSOLUTE BASOPHIL,[2],0 CELLS/uL
same,ABSOLUTE EOSINOPHIL,[2],26.67 CELLS/uL
same,ABSOLUTE LYMPHOCYTE,[2],8334.17 CELLS/uL
same,ABSOLUTE MONOCYTE,[2],29.5 CELLS/uL
same,BASOPHIL,[2],0%
same,EOSINOPHIL,[2],0.33%
same,ERYTHROCYTE COUNT,[2],5.44 x10E6/uL
same,HEMATOCRIT,[2],33.77%
same,HEMOGLOBIN,[2],13.05 G/DL
same,LEUKOCYTE COUNT,[2],8.98 x10E3/uL
same,LYMPHOCYTE,[2],92.33%
same,MEAN CORPUSCULAR HEMOGLOBIN,[2],24 pg
same,MEAN CORPUSCULAR HEMOGLOBIN CONCENTRATION,[2],38.67 G/DL
same,MEAN CORPUSCULAR VOLUME,[2],62.05 fL
same,MONOCYTE,[2],0.33%
same,NEUTROPHIL,[2],7%
same,NUCLEATED RED BLOOD CELLS,[2],0 /100WBC
same,PLATELET COUNT,[2],987 x10E3/uL
same,ALANINE AMINOTRANSFERASE,[2],43.5 u/L
same,ALBUMIN,[2],4.08 G/DL
same,ALKALINE PHOSPHATASE,[2],310.17 u/L
same,ASPARTATE AMINOTRANSFERASE,[2],76.67 u/L
same,BLOOD UREA NITROGEN,[2],17 mg/dL
same,CARBON DIOXIDE,[2],30.67 mmol/L
same,CHLORIDE,[2],100.33 MEQ/L
same,CHOLESTEROL,[2],69.33 mg/dL
same,CREATINE PHOSPHOKINASE,[2],218.67 u/L
same,CREATININE,[2],0.22 mg/dL
same,GLUCOSE,[2],155.17 mg/dL
same,LACTATE DEHYDROGENASE,[2],114.67 u/L
same,LIPASE,[2],10.67 u/L
same,PHOSPHORUS,[2],11.2 mg/dL
same,POTASSIUM,[2],5.5 MEQ/L
same,SODIUM,[2],144.12 MEQ/L
same,TOTAL BILIRUBIN,[2],0.18 mg/dL
same,TOTAL PROTEIN,[2],5.97 G/DL
same,URIC ACID,[2],0.88 mg/dL
same,ABSOLUTE BASOPHIL,[3],0 CELLS/uL
same,ABSOLUTE EOSINOPHIL,[3],0 CELLS/uL
same,ABSOLUTE LYMPHOCYTE,[3],8042 CELLS/uL
same,ABSOLUTE MONOCYTE,[3],56.33 CELLS/uL
same,ABSOLUTE SEGMENTED NEUTROPHIL,[3],601.67 CELLS/uL
same,BASOPHIL,[3],0%
same,EOSINOPHIL,[3],0%
same,ERYTHROCYTE COUNT,[3],5.65 x10E6/uL
same,HEMATOCRIT,[3],34.47%
same,HEMOGLOBIN,[3],13.63 G/DL
same,LEUKOCYTE COUNT,[3],8.7 x10E3/uL
same,LYMPHOCYTE,[3],92.67%
same,MEAN CORPUSCULAR HEMOGLOBIN,[3],24.13 pg
same,MEAN CORPUSCULAR HEMOGLOBIN CONCENTRATION,[3],39.57 G/DL
same,MEAN CORPUSCULAR VOLUME,[3],61.07 fL
same,MONOCYTE,[3],0.67%
same,NEUTROPHIL,[3],6.67%
same,NUCLEATED RED BLOOD CELLS,[3],0 /100WBC
same,PLATELET COUNT,[3],888.67 x10E3/uL
same,ALANINE AMINOTRANSFERASE,[3],51.67 u/L
same,ALBUMIN,[3],4.27 G/DL
same,ALKALINE PHOSPHATASE,[3],324.67 u/L
same,ASPARTATE AMINOTRANSFERASE,[3],87 u/L
same,BLOOD UREA NITROGEN,[3],14.33 mg/dL
same,CARBON DIOXIDE,[3],31 mmol/L
same,CHLORIDE,[3],99 MEQ/L
same,CHOLESTEROL,[3],72 mg/dL
same,CREATINE PHOSPHOKINASE,[3],285 u/L
same,CREATININE,[3],0.26 mg/dL
same,GLUCOSE,[3],136.67 mg/dL
same,LACTATE DEHYDROGENASE,[3],100.67 u/L
same,LIPASE,[3],11.67 u/L
same,PHOSPHORUS,[3],10.87 mg/dL
same,POTASSIUM,[3],5.62 MEQ/L
same,SODIUM,[3],144.1 MEQ/L
same,TOTAL BILIRUBIN,[3],0.1 mg/dL
same,TOTAL PROTEIN,[3],5.9 G/DL
same,URIC ACID,[3],0.63 mg/dL
